Measurements published in ChEMBL document CHEMBL2396598, “Anti-neuroinflammatory diarylheptanoids from the rhizomes of Dioscorea nipponica” (Bioorg Med Chem Lett, 2013).

Assays:
[1] = Cytotoxicity against LPS-treated mouse BV2 cells assessed as cell viability at 20 uM relative to control; type: cell-based, BV-2; conditions: read-out: Activity
[2] = test system: BV-2; experiment: Antineuroinflammatory activity in mouse BV2 cells assessed as inhibition of LPS-induced nitric oxide production after 24 hrs by Griess assay; type: functional, cell-based; conditions: BV-2, 24 h

IC50 [2] [µM] | SMILES | viability at 20 µM [1] [%]
7.84 | O=C(/C=C/C=C/c1ccc(O)c(O)c1)CCc1ccc(O)c(O)c1 | 24.6
95.1 | COc1cc(CC[C@H]2C[C@@H](O)C[C@@H](c3ccc(O)c(OC)c3)O2)ccc1O | 109
45.9 | COc1cc(CC[C@H]2C[C@H](O)C[C@@H](c3ccc(O)c(OC)c3)O2)ccc1O | 116
39.7 | Oc1ccc(CC[C@H]2C[C@@H](O)C[C@@H](c3ccc(O)cc3)O2)cc1 | 96.8
38.1 | Oc1ccc(CC[C@H]2C[C@H](O)C[C@@H](c3ccc(O)cc3)O2)cc1 | 95.6
18.6 | Oc1ccc(/C=C/[C@H]2C[C@H](O)C[C@@H](c3ccc(O)cc3)O2)cc1 | 91.4
5.99 | COc1cc(/C=C/C(=O)/C=C/c2ccc(O)cc2)ccc1O | 25.5
8.44 | COc1ccc(/C=C/C=C/C(=O)CCc2ccc(O)cc2)cc1 | 18.5
14.4 | O=C(/C=C/C=C/c1ccc(O)c(O)c1)CCc1ccc(O)cc1 | 104
57.1 | O=C(/C=C/c1ccc(O)cc1)C[C@H](O)CCc1ccc(O)cc1 | 99.4
89.7 | COc1cc(CC[C@@H](O)C[C@H](O)CCc2ccc(O)c(O)c2)ccc1O | 99.2
13.4 | COc1cc(/C=C/C=C/C(=O)CCc2ccc(O)cc2)ccc1O | 115
– | CNC(=N)NCCC[C@H](N)C(=O)O [TILARGININE] | 103
